From patent EP4635969A1, “NOVEL GLUCOCORTICOID, METHOD FOR PREPARING SAME, AND USE THEREOF” (Tianjin Pharmaceutical Biotechnology Co., Ltd., priority 2022, dated 2024) come the findings set out here.

Data set [1] has as its system inflammatory cytokines (TNF-α). Kind of data set: Anti-uveitis pharmacodynamic experiment (LPS model): inflammatory cytokines in aqueous humor (ELISA). The settings on record: values not given. Type of data set: in vivo, male SD rats. As for the experimental part: Pharmacological Example 5. Pharmacodynamic Experiment on Anti-Uveitis
Test samples: Compounds 23 and 26 were prepared as 5 mg/5 mL ophthalmic suspensions with reference to the formulation of Fluorometholone Eye Drops, and stored at room temperature protected from light until use.
Positive control drug: Fluorometholone Eye Drops (specification: 5 mL/5 mg; Santen Pharmaceutical (CHINA) Co., Ltd.; Lot No. : J20180068) was used as the positive control drug and stored at room temperature protected from light until use.
Fifty male SD rats underwent a one-week adaptive feeding period. The animals were randomly divided into 5 groups: Group 1 served as the blank control group, and Groups 2 to 5 were the model group, fluorometholone group, compound 23 group, and compound 26 group, respectively. Groups 2 to 5 were used to establish rat uveitis models by single subcutaneous injection of 1 mg/kg LPS (Salmonella; Sigma; Lot No. 0000164114) into the plantar tissue of the hindpaw. Salmonella endotoxin was dissolved in normal saline to prepare an injection solution at a concentration of 2 mg/mL, which was injected subcutaneously at 1 mg/kg into the plantar tissue of one paw of the rats. Group 1 was injected with an equal volume of normal saline.
After modeling, 40 µL of normal saline was administered to the eyes (bilateral) of the rats in the blank control group and model group, and 40 µL of the corresponding drugs were administered to the eyes (bilateral) of the […] in the compound 23 group, compound 26 group, and positive drug fluorometholone group, 3 times a day for 2 days. Table 8. Animal grouping and drug administration dosages
Thirty hours after modeling, aqueous humor was collected from both eyes of rats, and partial eyeball tissues of rats were collected. The level of the inflammatory cytokines (TNF-α) was detected using a rat ELISA assay kit.
Statistical analysis was performed using SPSS software. Measurement data were expressed as mean ± standard deviation. One-way ANOVA was used for intergroup comparisons. For data with homogeneous variance, LSD test was used; for data with heterogeneous variance, Dunnett-t test was used. A value of P < 0.05 was considered statistically significant.

Data set [2] has as its system inflammatory bowel disease model rats. Briefly: Inflammatory bowel disease experiment (TNBS model): macroscopic injury score of the colon. The class given is in vivo. The settings on record: for inflammatory response on the intestinal surface / intestinal symptoms: compared with the model group. In short, it runs like this: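 Colitis in rats was induced by intrarectal TNBS 50 mg/kg (20 mg/mL in 50% ethanol) after 24 h fasting. Dosing began 1 h before induction, then daily for 5 days. On day 5 colon was scored macroscopically for adhesion, obstruction, wall thickening, congestion and necrosis, with ANOVA/Dunnett or Kruskal-Wallis/Mann-Whitney statistics.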

In data set [3] the test system is inflammatory cytokines IL-6 and IL-12. Kind of data set: Anti-asthma pharmacodynamic experiment: inflammatory cytokines in bronchoalveolar lavage fluid (ELISA). The class given is in vivo, female BALB/c mice. The settings on record: for Effects on inflammatory cytokines in bronchoalveolar lavage fluid of mice: compared with the model group.
Method: (§1) Pharmacological Example 4: Pharmacodynamic Experiment on Anti-Asthma
(§2) The suspensions were stored at room temperature protected from light until use.
(§3) Positive control drug: Budesonide Suspension for Inhalation (specification: 2 mL: 1 mg; AstraZeneca Inc.; Lot No. : 327392) was diluted with injection-grade sodium chloride solution to 0.3 mg/ml as the positive control drug, and stored at room temperature protected from light until use.
(§4) Sixty female BALB/c mice underwent a one-week adaptive feeding period. Ten mice were randomly selected as the blank control group, while 50 mice were selected to establish asthma models.
(§5) From days 21 to 23 after sensitization, the mice in the model group and drug administration group were exposed to a 30-minute aerosol challenge with 5% OVA, while the mice in the blank control group were exposed to normal saline aerosol for the same duration.
At the end of airway hyperresponsiveness testing in mice, the mice were euthanized by cervical dislocation and fixed on a dissection tray. The abdomens and thoracic cavities of the mice were opened, and the skin and excess tissues of the neck were excised to expose the trachea of the mice. A small incision was made transversely on the trachea with a small scissors. A pre-treated 1 mL syringe needle was inserted and fastened with surgical thread. A 1 mL syringe was used to slowly inject 0.5 mL of pre-chilled phosphate-buffered saline (PBS) into the lungs of the mice, followed by slow aspiration. Each mouse was lavaged once, and a total of approximately 0.4 ml of lavage fluid was collected. The bronchoalveolar lavage fluid was centrifuged at 3000 rpm for 5 min. After centrifugation, the supernatant was aliquoted, and the levels of inflammatory cytokines IL-6 and IL-12 in the bronchoalveolar lavage fluid were determined using ELISA kits.
Data set [4] is described as follows: Determination of stability in plasma in vitro, human plasma (LC-MS/MS). The class given is in vitro ADME. The settings on record: same experimental conditions (human and mouse plasma). In short, it runs like this: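 Compound at 1 µM final in human or mouse plasma (N = 2) at 37 °C; aliquots taken at 0 and preset time points into ice-cold precipitant with internal standard. Remaining compound measured semi-quantitatively by LC-MS/MS as analyte/internal-standard peak-area ratio.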

The next data set concerns asthma model mice. Kind of data set: Anti-asthma pharmacodynamic experiment: airway hyperresponsiveness (Penh) after methacholine challenge. Type of data set: in vivo, female BALB/c mice. The settings on record: for Effects on airway hyperresponsiveness (Penh values) in mice: compared with the model group.
For data set [5], the system named is dry eye syndrome model New Zealand rabbits. Briefly: Dry eye syndrome experiment (benzalkonium chloride model): tear secretion test with phenol red cotton threads. The settings on record: for tear secretion: compared with the model group. The class given is in vivo, male New Zealand White rabbits.
Method: Positive control drug: Fluorometholone Eye Drops (specification: 5 mL/5 mg; Santen Pharmaceutical (CHINA) Co., Ltd.; Lot No.: 1FM6625) was used as the positive control drug and stored at room temperature protected from light until use.
Thirty male New Zealand White rabbits (conventional grade) were prepared. Six rabbits were randomly selected as the blank control group, and the remaining animals were administered 0.1% benzalkonium chloride to the left eye twice daily (morning and evening) , 10 µL/animal each time. On day 6 of modeling, tear secretion was measured using phenol red cotton threads to determine whether the model was successfully established. […] During the administration, all animals except the blank control group were administered 10 µL of 0.1% benzalkonium chloride to the left eye once daily to maintain dry eye symptoms..
• Test time: D3, D7, D15; • Test animals: All animals were tested before grouping; all enrolled surviving animals were tested after administration; • Test method: Tear secretion was measured using phenol red cotton threads. The tear secretion test paper was folded and placed at the middle and outer 1/3 of the rabbit palpebral conjunctival sac for 1 min. The test paper was then removed, observed, and recorded for its wetting length. The test was repeated 3 times, and the values were averaged.
The normality and homogeneity of variance were tested by Levene's test. If there was no statistical significance (P > 0.05), one-way analysis of variance (ANOVA) was used for statistical analysis. If ANOVA was statistically significant (P ≤ 0.05), LSD test (parametric method) was used for comparative analysis. If the variance was heterogeneous (P ≤ 0.05), Kruskal-Wallis test was used. If the Kruskal-Wallis test was statistically significant (P ≤ 0.05), Dunnett's test (nonparametric method) was used for comparative analysis.
For the next data set, the system named is uveitis model rats. Kind of data set: Anti-uveitis pharmacodynamic experiment (LPS model): ocular pathological score. Type of data set: in vivo, male SD rats. The settings on record: for ocular abnormalities / ocular pathological score: compared with the model group.
Data set [6] has as its system dry eye syndrome model New Zealand rabbits. Kind of data set: Dry eye syndrome experiment (benzalkonium chloride model): corneal fluorescein sodium staining. Type of data set: in vivo, male New Zealand White rabbits. The settings on record: for inflammatory response on the ocular surface / ocular symptoms: compared with the model group.
Setting [7] is: bronchoalveolar lavage fluid, 0.3 mg/mL, 50 µL intratracheally once daily for 3 days.
Where [8] appears, read: D3, 1 mg/mL, 50 µL/eye, 3 times a day for 14 days.
The mark [9] stands for this setting: D7, 1 mg/mL, 50 µL/eye, 3 times a day for 14 days.
Where [10] appears, read: D15, 1 mg/mL, 50 µL/eye, 3 times a day for 14 days.

Molecules are shown by their SMILES.

Method for asthma model mice: as §1, §2, §3, §4, §5
Airway responsiveness was measured in all groups of mice after the last challenge. The mice were placed into a plethysmography chamber, and baseline Penh values were recorded. Subsequently, the mice were challenged with aerosolized methacholine at concentrations from low to high of 0, 6.25, and 12.5 mg/mL, with an aerosol volume of 100 µ L each time for 60 s. […] Penh values were then recorded for 3 min and averaged to compare the airway responsiveness of each group of mice.
Method for uveitis model rats: Fifty male SD rats underwent a one-week adaptive feeding period. […] Groups 2 to 5 were used to establish rat uveitis models by single subcutaneous injection of 1 mg/kg LPS (Salmonella; Sigma; Lot No. 0000164114) into the plantar tissue of the hindpaw. Salmonella endotoxin was dissolved in normal saline to prepare an injection solution at a concentration of 2 mg/mL, which was injected subcutaneously at 1 mg/kg into the plantar tissue of one paw of the rats. Group 1 was injected with an equal volume of normal saline.
At the end of the experiment, photos of the rats' eyes were taken using a slit-lamp microscope, and the differences in ocular lesions of rats among groups were compared and analyzed.

Turning to `C[C@]12C=CC(=O)C=C1CC[C@H]1[C@@H]3C[C@H]4OC(c5ccc(CSC6CCOC6=O)cc5)O[C@@]4(C(=O)CO)[C@@]3(C)C[C@H](O)[C@@]12Cl` (stereo partly drawn) [Compound 23, (6aS,6bR,7S,8aS,8bS,11aR,12aS,12bS)-6b-Chloro-7-hydroxy-8b-(2-hydroxyacetyl)-6a,8a-dimethyl-10-(4-(((2-oxotetrahydrofuran-3-yl)thio)methyl)phenyl)-1,2,6a,6b,7,8,8a,8b,11a,12,12a,12b-do decahydro-4H-naphtho[2',1':4,5]indeno[1,2-d][1,3]dioxol-4-one], in data set [1], the “inflammatory cytokines in aqueous humor” value is “suppressed inflammatory cytokines in aqueous humor”. Also, the Macroscopic injury score in data set [2] (colon, day 5 after TNBS, 2 mg/kg once a day (compounds intraintestinally, dexamethasone by gavage)) is 4.83 ± 1.10". The “inflammatory response on the intestinal surface / intestinal symptoms” value in data set [2] is on record as “significantly inhibited the inflammatory response on the intestinal surface”. For the same molecule, in data set [3] (setting [7]), the “IL-6” value is 11.1 ± 5.5 pg/mL and the “IL-12” value came to 7.0 ± 3.9 pg/mL. For the same molecule, in data set [3], the “Effects on inflammatory cytokines in bronchoalveolar lavage fluid of mice” value (from here on “Effects on inflammatory cytokines”) is “extremely significantly decreased the levels of IL-6 and IL-12 in mice”. In addition, the plasma instability entry in data set [4] is on record as “exhibited the characteristic of plasma instability”. For the same molecule, the “Penh values in mice, Methacholine concentration (mg/ml) 0” value in the data set on asthma model mice (0.3 mg/mL, 50 µL intratracheally once daily for 3 days, methacholine 0 mg/ml) was determined as 1.12 ± 0.30. In the data set on asthma model mice (0.3 mg/mL, 50 µL intratracheally once daily for 3 days, methacholine 6.25 mg/ml), the “Penh values in mice, Methacholine concentration (mg/ml) 6.25” value is reported as 1.55 ± 0.29. Moreover, in the data set on asthma model mice (0.3 mg/mL, 50 µL intratracheally once daily for 3 days, methacholine 12.5 mg/ml), the “Penh values in mice, Methacholine concentration (mg/ml) 12.5” value is 1.84 ± 0.38. For the same molecule, in the data set with asthma model mice, the “Effects on airway hyperresponsiveness (Penh values) in mice” value (“Effects on airway hyperresponsiveness” for short) is given as “significantly decreased the Penh values in mice”. Moreover, the “Wetting length of phenol red cotton threads (mm) D0” value in data set [5] (D0, 1 mg/mL, 50 µL/eye, 3 times a day for 14 days) was determined as 28.24 ± 6.22 mm. In addition, the “Wetting length of phenol red cotton threads (mm) D3” value in data set [5] (setting [8]) is 29.4 ± 4.63 mm. The “Wetting length of phenol red cotton threads (mm) D7” value in data set [5] (setting [9]) came to 31.88 ± 6.20 mm. For the same molecule, the “Wetting length of phenol red cotton threads (mm) D15” value in data set [5] (setting [10]) is listed as 36.05 ± 5.74" mm. The tear secretion entry in data set [5] is reported as “significantly increased the tear secretion on day 15”. Also, the Ocular pathological score with uveitis model rats (1 mg/mL, 40 µL/eye, 3 times a day for 2 days) came out at 7.0 ± 0.5. Besides, in the data set with uveitis model rats, the “ocular abnormalities / ocular pathological score” value is “significantly improved the ocular abnormalities and reduced the ocular pathological score”. The “Corneal fluorescein sodium staining score D3” value in data set [6] (setting [8]) was 2.17 ± 0.98. Besides, the “Corneal fluorescein sodium staining score D7” value in data set [6] (setting [9]) was 1.0 ± 0.98. Moreover, the “Corneal fluorescein sodium staining score D15” value in data set [6] (setting [10]) was 1.0 ± 0.63". Further, the “inflammatory response on the ocular surface / ocular symptoms” value in data set [6] is given as “significantly inhibited the inflammatory response on the ocular surface on day 15”.
As to `C[C@]12C=CC(=O)C=C1CC[C@H]1[C@@H]3C[C@H]4OC(c5ccc(CSC6CCOC6=O)nc5)O[C@@]4(C(=O)CO)[C@@]3(C)C[C@H](O)[C@@]12Cl` (stereo partly drawn) [Compound 48, (6aS,6bR,7S,8aS,8bS,11aR,12aS,12bS)-6b-Chloro-7-hydroxy-8b-(2-hydroxyacetyl)-6a,8a-dimethyl-10-(6-(((2-oxotetrahydrofuran-3-yl)thio)methyl)pyridin-3-yl)-1,2,6a,6b,7,8,8a,8b,11a,12,12a,12 b-dodecahydro-4H-naphtho[2',1':4,5]indeno[1,2-d][1,3]dioxol-4-one], the “inflammatory cytokines in aqueous humor” value in data set [1] was “suppressed inflammatory cytokines in aqueous humor”. Moreover, in data set [2], the “inflammatory response on the intestinal surface / intestinal symptoms” value was “significantly alleviated the intestinal symptoms in inflammatory bowel disease model rats”. Moreover, in data set [3], the “Effects on inflammatory cytokines” value was “pharmacological effects similar to those of compound 23”. Besides, in data set [4], the plasma instability entry is “exhibited the characteristic of plasma instability”. Also, in the data set with asthma model mice, the “Effects on airway hyperresponsiveness” value is given as “significantly decreased the Penh values in mice”. Besides, the tear secretion entry in data set [5] is “significantly increased the tear secretion”. For the same molecule, in the data set on uveitis model rats, the “ocular abnormalities / ocular pathological score” value is given as “significantly improved ocular abnormalities”. Further, the “inflammatory response on the ocular surface / ocular symptoms” value in data set [6] is listed as “significantly alleviated the ocular symptoms in dry eye syndrome model New Zealand rabbits”.
Regarding `C[C@]12C=CC(=O)C=C1CC[C@H]1[C@@H]3C[C@H]4OC(c5ccc(CSC6CCOC6=O)cc5)O[C@@]4(C(=O)CO)[C@@]3(C)C[C@H](O)[C@@]12F` (stereo partly drawn) [Compound 17, (6aS,6bR,7S,8aS,8bS,11aR,12aS,12bS)-6b-Fluoro-7-hydroxy-8b-(2-hydroxyacetyl)-6a,8a-dimethyl-10-(4-(((2-oxotetrahydrofuran-3-yl)thio)methyl)phenyl)-1,2,6a,6b,7,8,8a,8b,11a,12,12a,12b-do decahydro-4H-naphtho[2',1':4,5]indeno[1,2-d][1,3]dioxol-4-one], the “inflammatory cytokines in aqueous humor” value in data set [1] was “suppressed inflammatory cytokines in aqueous humor”. In addition, the “inflammatory response on the intestinal surface / intestinal symptoms” value in data set [2] is “significantly alleviated the intestinal symptoms in inflammatory bowel disease model rats”. Also, in data set [3], the “Effects on inflammatory cytokines” value is “pharmacological effects similar to those of compound 23”. In addition, the plasma instability entry in data set [4] is “exhibited the characteristic of plasma instability”. In the data set on asthma model mice, the “Effects on airway hyperresponsiveness” value was “significantly decreased the Penh values in mice”. Also, the tear secretion entry in data set [5] is “significantly increased the tear secretion”. Also, the “ocular abnormalities / ocular pathological score” value in the data set on uveitis model rats was “significantly improved ocular abnormalities”. In addition, the “inflammatory response on the ocular surface / ocular symptoms” value in data set [6] is recorded as “significantly alleviated the ocular symptoms in dry eye syndrome model New Zealand rabbits”.
Consider `C[C@]12C=CC(=O)C=C1CC[C@H]1[C@@H]3C[C@H]4OC(c5ccc(CNC6COC(=O)C6)cc5)O[C@@]4(C(=O)CO)[C@@]3(C)C[C@H](O)[C@@]12F` (stereo partly drawn) [Compound 21, (6aS,6bR,7S,8aS,8bS,11aR,12aS,12bS)-6b-Fluoro-7-hydroxy-8b-(2-hydroxyacetyl)-6a,8a-dimethyl-10-(4-(((5-oxotetrahydrofuran-3-yl)amino)methyl)phenyl)-1,2,6a,6b,7,8,8a,8b,11a,12,12a,12b-dodecahydro-4H-naphtho[2',1':4,5]indeno[1,2-d][1,3]dioxol-4-one], for which, in data set [1], the “inflammatory cytokines in aqueous humor” value is on record as “suppressed inflammatory cytokines in aqueous humor”. In addition, the “inflammatory response on the intestinal surface / intestinal symptoms” value in data set [2] is “significantly alleviated the intestinal symptoms in inflammatory bowel disease model rats”. Moreover, in data set [3], the “Effects on inflammatory cytokines” value is reported as “pharmacological effects similar to those of compound 23”. In addition, in data set [4], the plasma instability result is on record as “exhibited the characteristic of plasma instability”. For the same molecule, the “Effects on airway hyperresponsiveness” value in the data set with asthma model mice was “significantly decreased the Penh values in mice”. In addition, in data set [5], the tear secretion entry was “significantly increased the tear secretion”. Moreover, the “ocular abnormalities / ocular pathological score” value in the data set with uveitis model rats is listed as “significantly improved ocular abnormalities”. In data set [6], the “inflammatory response on the ocular surface / ocular symptoms” value is listed as “significantly alleviated the ocular symptoms in dry eye syndrome model New Zealand rabbits”.
